# Data reported in patent US20260226493A1, “HERBICIDE RESISTANT PLANTS” (SYNGENTA CROP PROTECTION AG, priority 2023, published 2026).
# Columns and labels:
# Experiment in all cases: BIO3-BIO1 mutant enzyme activity in the presence of herbicide, percentage inhibition (fluorometric DAPA assay)
# Type in all cases: biochemical
# Conditions in all cases: read-out: percentage inhibition
# [1] = target: T1, Arabidopsis thaliana BIO3-BIO1 (BioDA) mutants (Arabidopsis thaliana, UniProt B0F481, P510V)
# T1 construct: with the predicted N-terminal mitochondrial transit peptide removed; 6xHis-tag (N); thrombin cleavage site (N); made in house; host or cells: E. coli BL21 (DE3) bioA
# T1 sequence (B0F481 23-833 P510V): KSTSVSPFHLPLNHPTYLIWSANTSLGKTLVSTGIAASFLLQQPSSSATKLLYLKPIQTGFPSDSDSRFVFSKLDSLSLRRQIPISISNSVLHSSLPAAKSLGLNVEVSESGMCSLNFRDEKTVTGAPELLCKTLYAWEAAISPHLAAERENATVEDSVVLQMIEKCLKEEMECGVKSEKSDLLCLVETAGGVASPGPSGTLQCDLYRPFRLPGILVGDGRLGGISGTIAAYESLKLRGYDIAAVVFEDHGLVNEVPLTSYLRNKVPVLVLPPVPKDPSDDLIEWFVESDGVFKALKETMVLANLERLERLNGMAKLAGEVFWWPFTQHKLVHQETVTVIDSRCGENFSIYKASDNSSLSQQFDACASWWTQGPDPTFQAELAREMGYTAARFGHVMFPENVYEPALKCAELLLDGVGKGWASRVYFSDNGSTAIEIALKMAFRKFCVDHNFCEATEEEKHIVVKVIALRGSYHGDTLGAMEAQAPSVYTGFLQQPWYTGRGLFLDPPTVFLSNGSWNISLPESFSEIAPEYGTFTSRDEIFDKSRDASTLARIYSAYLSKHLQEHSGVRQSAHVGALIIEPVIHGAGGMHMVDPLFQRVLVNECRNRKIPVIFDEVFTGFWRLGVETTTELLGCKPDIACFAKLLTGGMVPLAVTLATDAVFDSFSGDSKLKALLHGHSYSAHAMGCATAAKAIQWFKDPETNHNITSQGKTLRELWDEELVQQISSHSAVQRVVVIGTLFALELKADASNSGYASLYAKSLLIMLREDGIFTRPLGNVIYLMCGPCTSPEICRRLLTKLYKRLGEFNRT
# Method in brief: (§1)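 Percentage inhibition compares activity at one of three herbicide concentrations against DMSO, from o-phthalaldehyde-derivatised DAPA fluorescence (ex 410, em 470 nm). Purified N-His BIO3-BIO1 variants (50 nM, E. coli-expressed) saw herbicide 10 min at 20 °C in pH 8.6 EPPS buffer, then 20 μM KAPA plus 100 μM spermidine for 75 min at 20 °C.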
# [2] = target: T2, Arabidopsis thaliana BIO3-BIO1 (BioDA) mutants (Arabidopsis thaliana, UniProt B0F481, F348S)
# T2 construct: with the predicted N-terminal mitochondrial transit peptide removed; 6xHis-tag (N); thrombin cleavage site (N); made in house; host or cells: E. coli BL21 (DE3) bioA
# T2 sequence (B0F481 23-833 F348S): as the sequence (B0F481 23-833 P510V) above, with F326S, V488P counted along it
# Method in brief: as §1
# [3] = target: T3, Arabidopsis thaliana BIO3-BIO1 (BioDA) mutants (Arabidopsis thaliana, UniProt B0F481, F348A)
# T3 construct: with the predicted N-terminal mitochondrial transit peptide removed; 6xHis-tag (N); thrombin cleavage site (N); made in house; host or cells: E. coli BL21 (DE3) bioA
# T3 sequence (B0F481 23-833 F348A): as the sequence (B0F481 23-833 P510V) above, with F326A, V488P counted along it
# Method in brief: as §1
# [4] = target: T4, Arabidopsis thaliana BIO3-BIO1 (BioDA) mutants (Arabidopsis thaliana, UniProt B0F481, P510A)
# T4 construct: with the predicted N-terminal mitochondrial transit peptide removed; 6xHis-tag (N); thrombin cleavage site (N); made in house; host or cells: E. coli BL21 (DE3) bioA
# T4 sequence (B0F481 23-833 P510A): as the sequence (B0F481 23-833 P510V) above, with V488A counted along it
# Method in brief: as §1
# [5] = target: T5, Arabidopsis thaliana BIO3-BIO1 (BioDA) mutants (Arabidopsis thaliana, UniProt B0F481, P510L)
# T5 construct: with the predicted N-terminal mitochondrial transit peptide removed; 6xHis-tag (N); thrombin cleavage site (N); made in house; host or cells: E. coli BL21 (DE3) bioA
# T5 sequence (B0F481 23-833 P510L): as the sequence (B0F481 23-833 P510V) above, with V488L counted along it
# Method in brief: as §1
# [6] = target: T6, Arabidopsis thaliana BIO3-BIO1 (BioDA) mutants (Arabidopsis thaliana, UniProt B0F481, Q350H)
# T6 construct: with the predicted N-terminal mitochondrial transit peptide removed; 6xHis-tag (N); thrombin cleavage site (N); made in house; host or cells: E. coli BL21 (DE3) bioA
# T6 sequence (B0F481 23-833 Q350H): as the sequence (B0F481 23-833 P510V) above, with Q328H, V488P counted along it
# Method in brief: as §1
# [7] = target: T7, Arabidopsis thaliana BIO3-BIO1 (BioDA) mutants (Arabidopsis thaliana, UniProt B0F481, P421W)
# T7 construct: with the predicted N-terminal mitochondrial transit peptide removed; 6xHis-tag (N); thrombin cleavage site (N); made in house; host or cells: E. coli BL21 (DE3) bioA
# T7 sequence (B0F481 23-833 P421W): as the sequence (B0F481 23-833 P510V) above, with P399W, V488P counted along it
# Method in brief: as §1
# [8] = target: T8, Arabidopsis thaliana BIO3-BIO1 (BioDA) mutants (Arabidopsis thaliana, UniProt B0F481, W391M)
# T8 construct: with the predicted N-terminal mitochondrial transit peptide removed; 6xHis-tag (N); thrombin cleavage site (N); made in house; host or cells: E. coli BL21 (DE3) bioA
# T8 sequence (B0F481 23-833 W391M): as the sequence (B0F481 23-833 P510V) above, with W369M, V488P counted along it
# Method in brief: as §1
# [9] = target: T9, Arabidopsis thaliana BIO3-BIO1 (BioDA) mutants (Arabidopsis thaliana, UniProt B0F481, S509C)
# T9 construct: with the predicted N-terminal mitochondrial transit peptide removed; 6xHis-tag (N); thrombin cleavage site (N); made in house; host or cells: E. coli BL21 (DE3) bioA
# T9 sequence (B0F481 23-833 S509C): as the sequence (B0F481 23-833 P510V) above, with S487C, V488P counted along it
# Method in brief: as §1
# [10] = target: T10, Arabidopsis thaliana BIO3-BIO1 (BioDA) mutants (Arabidopsis thaliana, UniProt B0F481, Q517T)
# T10 construct: with the predicted N-terminal mitochondrial transit peptide removed; 6xHis-tag (N); thrombin cleavage site (N); made in house; host or cells: E. coli BL21 (DE3) bioA
# T10 sequence (B0F481 23-833 Q517T): as the sequence (B0F481 23-833 P510V) above, with V488P, Q495T counted along it
# Method in brief: as §1
# [11] = target: T11, Arabidopsis thaliana BIO3-BIO1 (BioDA) mutants (Arabidopsis thaliana, UniProt B0F481, R756S)
# T11 construct: with the predicted N-terminal mitochondrial transit peptide removed; 6xHis-tag (N); thrombin cleavage site (N); made in house; host or cells: E. coli BL21 (DE3) bioA
# T11 sequence (B0F481 23-833 R756S): as the sequence (B0F481 23-833 P510V) above, with V488P, R734S counted along it
# Method in brief: as §1
# [12] = target: T12, Arabidopsis thaliana BIO3-BIO1 (BioDA) mutants (Arabidopsis thaliana, UniProt B0F481, Q517I)
# T12 construct: with the predicted N-terminal mitochondrial transit peptide removed; 6xHis-tag (N); thrombin cleavage site (N); made in house; host or cells: E. coli BL21 (DE3) bioA
# T12 sequence (B0F481 23-833 Q517I): as the sequence (B0F481 23-833 P510V) above, with V488P, Q495I counted along it
# Method in brief: as §1
smiles,measurement,setting,value
"CCn1c(Cn2ccc(C(F)(F)F)n2)cc(=O)c(C(=O)O)c1-c1ccc(Cl)c(Cl)c1 [Compound L, 2-(3,4-dichlorophenyl)-1-ethyl-4-oxo-6-[[3-(trifluoromethyl)pyrazol-1-yl]methyl]pyridine-3-carboxylic acid]",inhibition at 0.01 µM,[1],0%
same,inhibition at 0.075 µM,[1],0%
same,inhibition at 0.5 µM,[1],52%
same,inhibition at 0.01 µM,[2],7%
same,inhibition at 0.075 µM,[2],3%
same,inhibition at 0.5 µM,[2],32%
same,inhibition at 0.01 µM,[3],1%
same,inhibition at 0.075 µM,[3],0%
same,inhibition at 0.5 µM,[3],3%
same,inhibition at 0.01 µM,[4],0%
same,inhibition at 0.075 µM,[4],0%
same,inhibition at 0.5 µM,[4],63%
same,inhibition at 0.01 µM,[5],35%
same,inhibition at 0.075 µM,[5],88%
same,inhibition at 0.5 µM,[5],97%
same,inhibition at 0.01 µM,[6],0%
same,inhibition at 0.075 µM,[6],16%
same,inhibition at 0.5 µM,[6],38%
same,inhibition at 0.01 µM,[7],0%
same,inhibition at 0.075 µM,[7],8%
same,inhibition at 0.5 µM,[7],27%
"CCn1c(C)c(-c2ccc(F)cc2F)c(=O)c(C(=O)O)c1-c1ccc(Cl)c(Cl)c1 [Compound C, 2-(3,4-dichlorophenyl)-5-(2,4-difluorophenyl)-1-ethyl-6-methyl-4-oxo-pyridine-3-carboxylic acid]",inhibition at 0.2 µM,[1],0%
same,inhibition at 1 µM,[1],21%
same,inhibition at 5 µM,[1],79%
same,inhibition at 0.2 µM,[8],39%
same,inhibition at 1 µM,[8],24%
same,inhibition at 5 µM,[8],63%
same,inhibition at 0.2 µM,[9],30%
same,inhibition at 1 µM,[9],65%
same,inhibition at 5 µM,[9],88%
same,inhibition at 0.2 µM,[2],9%
same,inhibition at 1 µM,[2],7%
same,inhibition at 5 µM,[2],22%
same,inhibition at 0.2 µM,[10],14%
same,inhibition at 1 µM,[10],47%
same,inhibition at 5 µM,[10],73%
same,inhibition at 0.2 µM,[3],7%
same,inhibition at 1 µM,[3],0%
same,inhibition at 5 µM,[3],1%
same,inhibition at 0.2 µM,[11],24%
same,inhibition at 1 µM,[11],57%
same,inhibition at 5 µM,[11],83%
same,inhibition at 0.2 µM,[4],0%
same,inhibition at 1 µM,[4],28%
same,inhibition at 5 µM,[4],70%
same,inhibition at 0.2 µM,[5],67%
same,inhibition at 1 µM,[5],84%
same,inhibition at 5 µM,[5],96%
same,inhibition at 0.2 µM,[12],25%
same,inhibition at 1 µM,[12],58%
same,inhibition at 5 µM,[12],82%
same,inhibition at 0.2 µM,[6],0%
same,inhibition at 1 µM,[6],2%
same,inhibition at 5 µM,[6],25%
same,inhibition at 0.2 µM,[7],0%
same,inhibition at 1 µM,[7],15%
same,inhibition at 5 µM,[7],37%
"CCn1c(-c2ccc(Cl)c(Cl)c2)c(C(=O)O)c(=O)c2cc(F)ccc21 [Compound M, 2-(3,4-dichlorophenyl)-1-ethyl-6-fluoro-4-oxo-quinoline-3-carboxylic acid]",inhibition at 0.2 µM,[1],0%
same,inhibition at 1 µM,[1],0%
same,inhibition at 5 µM,[1],62%
same,inhibition at 0.2 µM,[8],27%
same,inhibition at 1 µM,[8],37%
same,inhibition at 5 µM,[8],84%
same,inhibition at 0.2 µM,[9],21%
same,inhibition at 1 µM,[9],53%
same,inhibition at 5 µM,[9],78%
same,inhibition at 0.2 µM,[2],6%
same,inhibition at 1 µM,[2],4%
same,inhibition at 5 µM,[2],25%
same,inhibition at 0.2 µM,[10],14%
same,inhibition at 1 µM,[10],39%
same,inhibition at 5 µM,[10],71%
same,inhibition at 0.2 µM,[3],0%
same,inhibition at 1 µM,[3],0%
same,inhibition at 5 µM,[3],6%
same,inhibition at 0.2 µM,[11],23%
same,inhibition at 1 µM,[11],54%
same,inhibition at 5 µM,[11],78%
same,inhibition at 0.2 µM,[4],0%
same,inhibition at 1 µM,[4],14%
same,inhibition at 5 µM,[4],51%
same,inhibition at 0.2 µM,[5],54%
same,inhibition at 1 µM,[5],77%
same,inhibition at 5 µM,[5],94%
same,inhibition at 0.2 µM,[12],19%
same,inhibition at 1 µM,[12],44%
same,inhibition at 5 µM,[12],72%
same,inhibition at 0.2 µM,[6],0%
same,inhibition at 1 µM,[6],8%
same,inhibition at 5 µM,[6],20%
same,inhibition at 0.2 µM,[7],0%
same,inhibition at 1 µM,[7],0%
same,inhibition at 5 µM,[7],18%
"CCOC(=O)c1nn(-c2ccc3c(c2)OC(F)(F)C(F)(F)O3)c2cccc(C(C)=O)c2c1=O [Compound A, ethyl 5-acetyl-4-oxo-1-(2,2,3,3-tetrafluoro-1,4-benzodioxin-6-yl)cinnoline-3-carboxylate]",inhibition at 1 µM,[1],1%
same,inhibition at 1 µM,[8],85%
same,inhibition at 1 µM,[9],0%
same,inhibition at 1 µM,[2],3%
same,inhibition at 1 µM,[10],46%
same,inhibition at 1 µM,[3],4%
same,inhibition at 1 µM,[11],67%
same,inhibition at 1 µM,[4],4%
same,inhibition at 1 µM,[5],82%
same,inhibition at 1 µM,[12],28%
same,inhibition at 1 µM,[6],23%
same,inhibition at 1 µM,[7],21%
